Patent US10052330B2, “Substituted pyrido[3,4-b]pyrazines as Syk inhibitors” (HUTCHISON MEDIPHARMA LIMITED, priority 2011, dated 2018)
Like-named read-outs stand apart in the source and are kept apart here.

Key:
Syk kinase = Syk kinase (Homo sapiens, UniProt P43405); test: Syk kinase enzymatic assay (Kit-Tyr 2 Peptide); format: biochemical; conditions: 8 concentrations, 1 μM down to 0.0003 μM; upper bound of each range is 'less than'; read-out: IC50: Enzymatic Activity (Syk kinase)
RBL-2H3 cells = test: IgE-induced Beta-hexosaminidase secretion in RBL-2H3 cells; format: cell-based; conditions: Rattus norvegicus
[1] = RBL-2H3, RBL-2H3 cells sensitized with SPE-7, stimulated with DNP-BSA, upper bound of each range is 'less than', read-out: IC50, IgE-induced Beta-hexosaminidase secretion

IC50 (Syk kinase)	SMILES	IC50 (RBL-2H3 cells; [1])	IC50 (RBL-2H3 cells; RBL-2H3, read-out: IC50, IgE-induced Beta-hexosaminidase secretion)
0.1 to 1 µM	CC1CN(c2ccc(-c3cc4nccnc4c(NC[C@@H]4CNCCO4)n3)cc2F)CCO1 (mixture of isomers) [Compound 250]	0.001 to 0.1 µM	–
0.001 to 0.1 µM	CC1CN(c2ccc(-c3cc4nccnc4c(NCC4CNCCC4(F)F)n3)cc2)CCO1 (single isomer, unassigned) [Compound 308]	0.001 to 0.1 µM	–
0.001 to 0.1 µM	FC1(CNc2nc(-c3ccc(N4CCOCC4)cc3)cc3nccnc23)CCCNC1 (single isomer, unassigned) [Compound 377]	0.001 to 0.1 µM	–
0.001 to 0.1 µM	Fc1cc(-c2cc3nccnc3c(NCC3(F)CCCNC3)n2)ccc1N1CCOCC1 (single isomer, unassigned) [Compound 382]	0.001 to 0.1 µM	–
0.001 to 0.1 µM	C[C@H]1CN(c2ccc(-c3cc4nccnc4c(NCC4CNCCC4(F)F)n3)cc2)CCO1 (single isomer, unassigned) [Compound 396]	0.001 to 0.1 µM	–
0.001 to 0.1 µM	CN1CCN(c2ccc(-c3cc4nccnc4c(NCC4CN(S(C)(=O)=O)CCO4)n3)cc2)CC1 (stereo in doubt) [Compound 486, (S)-7-(4-(4-methylpiperazin-1-yl)phenyl)-N-((4-(methylsulfonyl)morpholin-2-yl)methyl)pyrido[4,3-b]pyrazin-5-amine]	0.001 to 0.1 µM	–
0.1 to 1 µM	CN(CCCN)c1nc(-c2ccc(N3CCOCC3)cc2)cc2nccnc12 [Compound 4]	0.1 to 1 µM	–
0.1 to 1 µM	CN(C)c1cccc(-c2cc3nccnc3c(NCC3CCCNC3)n2)c1 (stereo not drawn) [Compound 13]	0.1 to 1 µM	–
0.1 to 1 µM	COc1cc(OC)cc(-c2cc3nccnc3c(NCC3CCCNC3)n2)c1 (stereo not drawn) [Compound 15]	0.1 to 1 µM	–
0.1 to 1 µM	COc1cccc(-c2cc3nccnc3c(NCC3CCCNC3)n2)c1 (stereo not drawn) [Compound 17]	0.1 to 1 µM	–
0.001 to 0.1 µM	COc1ccc(-c2cc3nccnc3c(NCC3CCCNC3)n2)cc1F (stereo not drawn) [Compound 19]	0.001 to 0.1 µM	–
0.001 to 0.1 µM	CN(C)c1ccc(-c2cc3nccnc3c(NC[C@H]3CCCNC3)n2)cc1 [Compound 21]	0.001 to 0.1 µM	–
0.001 to 0.1 µM	Cc1ccc(-c2cc3nccnc3c(NCC3CCCNC3)n2)cc1 (stereo not drawn) [Compound 22]	0.001 to 0.1 µM	–
0.1 to 1 µM	Fc1ccc(-c2cc3nccnc3c(NCC3CCCNC3)n2)cc1 (stereo not drawn) [Compound 23]	0.1 to 1 µM	–
0.1 to 1 µM	Clc1cccc(-c2cc3nccnc3c(NCC3CCCNC3)n2)c1 (stereo not drawn) [Compound 24]	0.1 to 1 µM	–
0.1 to 1 µM	c1cnc2c(NCC3CCCNC3)nc(-c3cn[nH]c3)cc2n1 (stereo not drawn) [Compound 25]	0.1 to 1 µM	–
0.001 to 0.1 µM	COc1ccc(-c2cc3nccnc3c(NCC3CCCNC3)n2)cc1OC (stereo not drawn) [Compound 26]	0.1 to 1 µM	–
0.1 to 1 µM	NC1CCN(c2nc(-c3ccc(N4CCOCC4)cc3)cc3nccnc23)C1 (stereo not drawn) [Compound 28]	0.1 to 1 µM	–
0.001 to 0.1 µM	COc1ccc(-c2cc3nccnc3c(NC[C@H]3CCCNC3)n2)cc1OC [Compound 33]	0.1 to 1 µM	–
0.1 to 1 µM	c1cnc2c(NCC3CCNCC3)nc(-c3ccc(N4CCOCC4)cc3)cc2n1 [Compound 37]	0.1 to 1 µM	–
0.1 to 1 µM	c1cnc2c(N[C@@H]3CCNC3)nc(-c3ccc(N4CCOCC4)cc3)cc2n1 [Compound 39]	0.1 to 1 µM	–
0.001 to 0.1 µM	Cc1ccc(-c2cc3nccnc3c(NC[C@H]3CCCNC3)n2)cc1 [Compound 40]	0.1 to 1 µM	–
0.001 to 0.1 µM	Cc1ccc(-c2cc3nccnc3c(NC[C@H]3CCCNC3)n2)cc1F [Compound 41]	0.1 to 1 µM	–

IC50 (Syk kinase)	SMILES	IC50 (RBL-2H3 cells; [1])	IC50 (RBL-2H3 cells; RBL-2H3, read-out: IC50, IgE-induced Beta-hexosaminidase secretion)
0.001 to 0.1 µM	CC(C)COc1ccc(-c2cc3nccnc3c(NCC3CCCNC3)n2)cc1 (stereo not drawn) [Compound 42]	0.1 to 1 µM	–
0.1 to 1 µM	CCc1ccc(-c2cc3nccnc3c(NCC3CCCNC3)n2)cc1 (stereo not drawn) [Compound 45]	0.1 to 1 µM	–
0.001 to 0.1 µM	CC(C)c1ccc(-c2cc3nccnc3c(NCC3CCCNC3)n2)cc1 (stereo not drawn) [Compound 46]	0.1 to 1 µM	–
0.001 to 0.1 µM	CC(C)(C)c1ccc(-c2cc3nccnc3c(NCC3CCCNC3)n2)cc1 (stereo not drawn) [Compound 47]	0.1 to 1 µM	–
0.001 to 0.1 µM	CC(C)Oc1ccc(-c2cc3nccnc3c(NCC3CCCNC3)n2)cc1F (stereo not drawn) [Compound 52]	0.1 to 1 µM	–
0.001 to 0.1 µM	FC(F)(F)Oc1ccc(-c2cc3nccnc3c(NCC3CCCNC3)n2)cc1 (stereo not drawn) [Compound 54]	0.1 to 1 µM	–
0.001 to 0.1 µM	Clc1ccc(-c2cc3nccnc3c(NCC3CCCNC3)n2)cc1 (stereo not drawn) [Compound 55]	0.1 to 1 µM	–
0.001 to 0.1 µM	CNc1ccc(-c2cc3nccnc3c(NCC3CCCNC3)n2)cn1 (stereo not drawn) [Compound 60]	0.1 to 1 µM	–
0.001 to 0.1 µM	FC(F)(F)c1ccc(-c2cc3nccnc3c(NCC3CCCNC3)n2)cc1 (stereo not drawn) [Compound 63]	0.1 to 1 µM	–
0.001 to 0.1 µM	Oc1ccc(-c2cc3nccnc3c(NC[C@H]3CCCNC3)n2)cc1F [Compound 67]	0.1 to 1 µM	–
0.1 to 1 µM	COc1ccc(-c2cc3nccnc3c(NC[C@H]3CCCNC3)n2)c(F)c1 [Compound 68]	0.1 to 1 µM	–
0.1 to 1 µM	Cc1ccc(-c2cc3nccnc3c(NC[C@H]3CCCNC3)n2)cn1 [Compound 69]	0.1 to 1 µM	–
0.001 to 0.1 µM	CCN(CC)c1ccc(-c2cc3nccnc3c(NCC3CCCNC3)n2)cc1 (stereo not drawn) [Compound 73]	0.1 to 1 µM	–
0.001 to 0.1 µM	Nc1ccc(-c2cc3nccnc3c(NCC3CCCNC3)n2)cc1 (stereo not drawn) [Compound 74]	0.1 to 1 µM	–
0.1 to 1 µM	Nc1ccc(-c2cc3nccnc3c(NC[C@@H]3CCCNC3)n2)cc1Cl [Compound 75]	0.1 to 1 µM	–
0.1 to 1 µM	Cc1ccc(-c2cc3nccnc3c(NC[C@@H]3CCCNC3)n2)cc1Cl [Compound 76]	0.1 to 1 µM	–
0.001 to 0.1 µM	COCCOc1ccc(-c2cc3nccnc3c(NCC3CCCNC3)n2)cc1 (stereo not drawn) [Compound 78]	0.1 to 1 µM	–
0.001 to 0.1 µM	CC(C)(C)c1ccc(-c2cc3nccnc3c(NC[C@H]3CCCNC3)n2)cc1 [Compound 79]	0.1 to 1 µM	–
0.001 to 0.1 µM	Cc1ccc(-c2cc3nccnc3c(NC[C@H]3CCCNC3)n2)cc1Cl [Compound 80]	0.1 to 1 µM	–
0.001 to 0.1 µM	CC(C)(C)c1ccc(-c2cc3nccnc3c(NC[C@@H]3CCCNC3)n2)cc1 [Compound 83]	0.1 to 1 µM	–
0.1 to 1 µM	CNc1ccc(-c2cc3nccnc3c(NC[C@@H]3CCCNC3)n2)cc1 [Compound 84]	0.1 to 1 µM	–
0.001 to 0.1 µM	Clc1ccc(-c2cc3nccnc3c(NC[C@H]3CCCNC3)n2)cc1 [Compound 85]	0.1 to 1 µM	–
0.001 to 0.1 µM	CC(C)Oc1ccc(-c2cc3nccnc3c(NC[C@H]3CCCNC3)n2)cc1F [Compound 86]	0.1 to 1 µM	–

IC50 (Syk kinase)	SMILES	IC50 (RBL-2H3 cells; [1])	IC50 (RBL-2H3 cells; RBL-2H3, read-out: IC50, IgE-induced Beta-hexosaminidase secretion)
0.001 to 0.1 µM	c1cnc2c(NC[C@H]3CCCNC3)nc(-c3ccc(N4CCOCC4)nc3)cc2n1 [Compound 87]	0.1 to 1 µM	–
0.1 to 1 µM	CC(C)Oc1ccc(-c2cc3nccnc3c(NC[C@@H]3CCCNC3)n2)cc1F [Compound 88]	0.1 to 1 µM	–
0.1 to 1 µM	c1cnc2c(NC[C@@H]3CCCNC3)nc(-c3ccc(N4CCOCC4)nc3)cc2n1 [Compound 89]	0.1 to 1 µM	–
0.1 to 1 µM	CN(C)c1ccc(-c2cc3nccnc3c(NC[C@H]3CNCCO3)n2)cc1 [Compound 92]	0.1 to 1 µM	–
0.1 to 1 µM	COc1ccc(-c2cc3nccnc3c(NC[C@H]3CNCCO3)n2)cc1F [Compound 95]	0.1 to 1 µM	–
0.1 to 1 µM	c1cnc2c(NC[C@H]3CNCCO3)nc(-c3ccc(N4CCOCC4)nc3)cc2n1 [Compound 97]	0.1 to 1 µM	–
0.1 to 1 µM	CC(C)Oc1ccc(-c2cc3nccnc3c(NC[C@@H]3CNCCO3)n2)cc1F [Compound 100]	0.1 to 1 µM	–
0.001 to 0.1 µM	CN(C)c1ccc(-c2cc3nccnc3c(NC[C@@H]3CNCCO3)n2)cn1 [Compound 102]	0.001 to 0.1 µM	–
0.001 to 0.1 µM	c1cnc2c(NC[C@@H]3CNCCO3)nc(-c3ccc(N4CCCC4)nc3)cc2n1 [Compound 103]	0.1 to 1 µM	–
0.1 to 1 µM	CN(C)c1ccc(-c2cc3nccnc3c(NC[C@H]3CNCCO3)n2)cn1 [Compound 106]	0.1 to 1 µM	–
0.1 to 1 µM	NCC1CCN(c2nc(-c3ccc(N4CCOCC4)cc3)cc3nccnc23)CC1 [Compound 108]	0.1 to 1 µM	–
0.001 to 0.1 µM	Fc1cc(-c2cc3nccnc3c(N3CCC4(CCCNC4)C3)n2)ccc1N1CCOCC1 (stereo not drawn) [Compound 109]	0.001 to 0.1 µM	–
0.001 to 0.1 µM	Cc1cc(-c2cc3nccnc3c(N3CCC4(CCCNC4)C3)n2)ccc1N1CCOCC1 (stereo not drawn) [Compound 110]	0.001 to 0.1 µM	–
0.001 to 0.1 µM	CN(C)c1ccc(-c2cc3nccnc3c(N3CCC4(CCCNC4)C3)n2)cc1 (stereo not drawn) [Compound 111]	0.001 to 0.1 µM	–
0.001 to 0.1 µM	c1cnc2c(N3CCC4(CCCNC4)C3)nc(-c3ccc(N4CCCC4)cc3)cc2n1 (stereo not drawn) [Compound 112]	0.1 to 1 µM	–
0.001 to 0.1 µM	c1cnc2c(NC[C@@H]3CNCCO3)nc(-c3ccc(N4CCCC4)cc3)cc2n1 [Compound 114]	0.001 to 0.1 µM	–
–	CC(C)(O)[C@@H]1CCN(c2nc(-c3ccc(N4CCOCC4)cc3)cc3nccnc23)C1 [Compound 170]	0.1 to 1 µM	–
–	OCC1(CNc2nc(-c3ccc(N4CCOCC4)cc3)cc3nccnc23)COC1 [Compound 171]	0.1 to 1 µM	–
–	N#CCCNc1nc(-c2ccc(N3CCOCC3)cc2)cc2nccnc12 [Compound 187]	0.1 to 1 µM	–
–	FC(F)CNc1nc(-c2ccc(N3CCOCC3)cc2)cc2nccnc12 [Compound 197]	0.1 to 1 µM	–
–	FC(F)(F)C1CCC(CNc2nc(-c3ccc(N4CCOCC4)cc3)cc3nccnc23)CN1 (stereo not drawn) [Compound 199]	0.1 to 1 µM	–
0.1 to 1 µM	CS(=O)(=O)N1CCC(c2ccc(-c3cc4nccnc4c(NCC(O)CN)n3)cc2)CC1 (stereo not drawn) [Compound 509]	–	–

SMILES	IC50 (Syk kinase)	IC50 (RBL-2H3 cells; [1])	IC50 (RBL-2H3 cells; RBL-2H3, read-out: IC50, IgE-induced Beta-hexosaminidase secretion)
Cn1cc(-c2cc3nccnc3c(NCC3CCCNC3)n2)cn1 (stereo not drawn) [Compound 18]	0.1 to 1 µM	–	0.1 to 1 µM
